US9682995B2, “Amino-substituted isothiazoles” (BAYER PHARMA AKTIENGESELLSCHAFT, priority 2013, dated 2017)

Experiments:
Test in all cases: Kinase Profiling (KINOMEscan)
Assay type in all cases: binding
[1] = target: 456 kinases (of these 395 non-mutant kinases) (Homo sapiens, UniProt O94768); conditions: DRAK2; 10 μM
[2] = target: 456 kinases (of these 395 non-mutant kinases) (Homo sapiens, UniProt O95382); conditions: ASK2; 10 μM
[3] = target: 456 kinases (of these 395 non-mutant kinases) (Homo sapiens, UniProt P00533, T790M); conditions: EGFR(T790M); 10 μM
[4] = target: 456 kinases (of these 395 non-mutant kinases) (Homo sapiens, UniProt P04626); conditions: ERBB2; 10 μM
Sequence of 456 kinases (of these 395 non-mutant kinases) (Homo sapiens, UniProt P04626) (P04626 23-1255 limits assumed, change not shown): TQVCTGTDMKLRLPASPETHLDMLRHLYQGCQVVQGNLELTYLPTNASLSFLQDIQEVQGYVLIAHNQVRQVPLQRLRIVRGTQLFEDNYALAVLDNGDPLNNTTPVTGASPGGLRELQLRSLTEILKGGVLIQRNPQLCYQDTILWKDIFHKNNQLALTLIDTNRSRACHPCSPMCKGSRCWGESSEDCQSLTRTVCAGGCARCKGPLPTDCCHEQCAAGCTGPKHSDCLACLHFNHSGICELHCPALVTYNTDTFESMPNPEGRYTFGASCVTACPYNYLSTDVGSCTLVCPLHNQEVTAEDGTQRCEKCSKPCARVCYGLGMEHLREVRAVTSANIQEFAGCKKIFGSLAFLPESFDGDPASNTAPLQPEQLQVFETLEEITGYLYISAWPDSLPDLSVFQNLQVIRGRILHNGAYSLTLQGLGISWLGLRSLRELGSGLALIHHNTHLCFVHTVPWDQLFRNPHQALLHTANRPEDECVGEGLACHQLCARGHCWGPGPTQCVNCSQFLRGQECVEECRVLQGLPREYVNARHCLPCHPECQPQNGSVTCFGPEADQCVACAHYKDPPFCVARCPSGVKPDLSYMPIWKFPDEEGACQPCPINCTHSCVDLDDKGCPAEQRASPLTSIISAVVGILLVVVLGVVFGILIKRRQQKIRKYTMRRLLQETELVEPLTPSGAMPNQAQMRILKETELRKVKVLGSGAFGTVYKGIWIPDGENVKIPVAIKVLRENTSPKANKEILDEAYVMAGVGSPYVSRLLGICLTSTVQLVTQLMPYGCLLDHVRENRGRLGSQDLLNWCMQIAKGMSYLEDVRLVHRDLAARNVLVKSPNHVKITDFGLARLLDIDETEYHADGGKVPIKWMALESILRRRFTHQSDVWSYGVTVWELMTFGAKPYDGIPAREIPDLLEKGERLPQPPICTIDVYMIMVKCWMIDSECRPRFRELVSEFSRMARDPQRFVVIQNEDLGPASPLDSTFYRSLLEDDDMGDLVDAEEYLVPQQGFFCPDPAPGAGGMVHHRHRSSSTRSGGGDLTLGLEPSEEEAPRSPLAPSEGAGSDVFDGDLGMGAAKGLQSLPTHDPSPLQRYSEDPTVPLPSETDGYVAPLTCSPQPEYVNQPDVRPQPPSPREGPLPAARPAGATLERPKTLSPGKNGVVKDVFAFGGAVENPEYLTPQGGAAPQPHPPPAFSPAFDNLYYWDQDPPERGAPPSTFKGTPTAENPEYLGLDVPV

[5] = target: 456 kinases (of these 395 non-mutant kinases) (Homo sapiens, UniProt P07332); conditions: FES; 10 μM
[6] = target: 456 kinases (of these 395 non-mutant kinases) (Homo sapiens, UniProt P07949, V804M); conditions: RET(V804M); 10 μM
Sequence of 456 kinases (of these 395 non-mutant kinases) (Homo sapiens, UniProt P07949, V804M) (P07949 29-1114 V804M limits assumed): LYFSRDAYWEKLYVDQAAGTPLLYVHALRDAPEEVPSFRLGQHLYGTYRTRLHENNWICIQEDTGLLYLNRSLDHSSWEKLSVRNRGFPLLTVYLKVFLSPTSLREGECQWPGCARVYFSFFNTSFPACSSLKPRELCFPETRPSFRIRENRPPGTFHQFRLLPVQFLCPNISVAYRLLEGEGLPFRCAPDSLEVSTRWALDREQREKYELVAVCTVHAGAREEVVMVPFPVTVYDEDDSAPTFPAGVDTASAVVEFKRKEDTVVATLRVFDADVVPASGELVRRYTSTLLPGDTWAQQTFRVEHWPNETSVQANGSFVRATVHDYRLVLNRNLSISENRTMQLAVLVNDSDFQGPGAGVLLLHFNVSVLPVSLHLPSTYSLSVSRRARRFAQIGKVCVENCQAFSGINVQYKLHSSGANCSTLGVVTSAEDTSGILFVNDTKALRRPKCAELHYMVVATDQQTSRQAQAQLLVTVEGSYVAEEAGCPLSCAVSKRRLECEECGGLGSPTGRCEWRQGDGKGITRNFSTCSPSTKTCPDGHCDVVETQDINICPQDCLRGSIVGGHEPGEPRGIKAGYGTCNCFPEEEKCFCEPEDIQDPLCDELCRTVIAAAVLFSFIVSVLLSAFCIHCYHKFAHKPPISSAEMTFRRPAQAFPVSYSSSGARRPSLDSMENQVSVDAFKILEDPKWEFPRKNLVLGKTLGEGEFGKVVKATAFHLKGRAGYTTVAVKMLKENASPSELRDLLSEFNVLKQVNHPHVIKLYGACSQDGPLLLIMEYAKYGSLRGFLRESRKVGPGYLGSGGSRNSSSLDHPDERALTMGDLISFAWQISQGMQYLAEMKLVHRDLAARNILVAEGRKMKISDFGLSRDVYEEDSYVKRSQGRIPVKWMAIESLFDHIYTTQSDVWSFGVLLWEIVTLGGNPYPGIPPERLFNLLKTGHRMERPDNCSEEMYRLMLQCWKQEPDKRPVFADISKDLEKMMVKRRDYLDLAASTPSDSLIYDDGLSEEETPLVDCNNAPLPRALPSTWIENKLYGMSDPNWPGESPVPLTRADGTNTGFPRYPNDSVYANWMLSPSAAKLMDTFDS

[7] = target: 456 kinases (of these 395 non-mutant kinases) (Homo sapiens, UniProt P10721, D816V); conditions: KIT(D816V); 10 μM
Sequence of 456 kinases (of these 395 non-mutant kinases) (Homo sapiens, UniProt P10721, D816V) (P10721 26-976 D816V limits assumed): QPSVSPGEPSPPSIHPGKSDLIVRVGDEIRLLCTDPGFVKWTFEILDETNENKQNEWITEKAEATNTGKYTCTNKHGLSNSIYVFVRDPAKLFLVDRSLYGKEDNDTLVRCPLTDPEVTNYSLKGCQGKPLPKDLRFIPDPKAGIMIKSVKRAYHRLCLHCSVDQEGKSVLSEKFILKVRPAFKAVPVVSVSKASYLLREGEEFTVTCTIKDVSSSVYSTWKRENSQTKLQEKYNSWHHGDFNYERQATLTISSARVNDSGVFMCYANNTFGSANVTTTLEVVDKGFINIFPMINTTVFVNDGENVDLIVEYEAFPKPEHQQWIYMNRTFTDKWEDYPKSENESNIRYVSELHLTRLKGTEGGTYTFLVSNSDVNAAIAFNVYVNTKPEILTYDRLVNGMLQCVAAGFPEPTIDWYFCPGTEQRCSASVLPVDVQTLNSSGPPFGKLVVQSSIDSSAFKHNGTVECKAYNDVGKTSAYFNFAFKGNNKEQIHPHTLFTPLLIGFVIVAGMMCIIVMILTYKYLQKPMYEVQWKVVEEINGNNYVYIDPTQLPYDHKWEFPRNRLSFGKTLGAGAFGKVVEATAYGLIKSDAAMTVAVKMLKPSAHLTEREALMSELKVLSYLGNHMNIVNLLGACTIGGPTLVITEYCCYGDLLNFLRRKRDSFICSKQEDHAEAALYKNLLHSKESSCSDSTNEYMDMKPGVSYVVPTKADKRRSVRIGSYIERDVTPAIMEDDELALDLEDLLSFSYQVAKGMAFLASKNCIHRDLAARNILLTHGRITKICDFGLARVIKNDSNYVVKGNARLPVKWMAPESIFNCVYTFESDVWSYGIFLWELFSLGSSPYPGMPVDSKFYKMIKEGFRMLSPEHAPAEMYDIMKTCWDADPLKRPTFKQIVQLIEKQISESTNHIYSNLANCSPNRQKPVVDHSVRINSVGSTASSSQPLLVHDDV

[8] = target: 456 kinases (of these 395 non-mutant kinases) (Homo sapiens, UniProt P19525); conditions: PRKR; 10 μM
Sequence of 456 kinases (of these 395 non-mutant kinases) (Homo sapiens, UniProt P19525) (P19525 2-551 limits assumed, change not shown): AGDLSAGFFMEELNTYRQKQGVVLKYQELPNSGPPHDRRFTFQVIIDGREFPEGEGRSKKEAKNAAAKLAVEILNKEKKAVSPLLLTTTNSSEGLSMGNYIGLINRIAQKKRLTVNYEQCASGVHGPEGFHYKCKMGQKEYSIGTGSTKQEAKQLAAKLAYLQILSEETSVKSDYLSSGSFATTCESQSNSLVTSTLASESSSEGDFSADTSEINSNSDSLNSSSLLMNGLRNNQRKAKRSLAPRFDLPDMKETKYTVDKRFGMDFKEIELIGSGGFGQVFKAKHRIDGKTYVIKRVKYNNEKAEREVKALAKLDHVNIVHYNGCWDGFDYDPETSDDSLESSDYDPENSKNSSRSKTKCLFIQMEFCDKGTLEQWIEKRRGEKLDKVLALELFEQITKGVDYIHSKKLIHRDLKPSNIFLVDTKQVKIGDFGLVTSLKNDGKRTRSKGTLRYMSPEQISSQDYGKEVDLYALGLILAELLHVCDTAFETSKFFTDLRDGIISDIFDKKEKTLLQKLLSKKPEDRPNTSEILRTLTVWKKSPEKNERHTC

[9] = target: 456 kinases (of these 395 non-mutant kinases) (Homo sapiens, UniProt P21860); conditions: ERBB3; 10 μM
[10] = target: 456 kinases (of these 395 non-mutant kinases) (Homo sapiens, UniProt P24723); conditions: PRKCH; 10 μM
[11] = target: 456 kinases (of these 395 non-mutant kinases) (Homo sapiens, UniProt P31152); conditions: ERK4; 10 μM
[12] = target: 456 kinases (of these 395 non-mutant kinases) (Homo sapiens, UniProt P31751); conditions: AKT2; 10 μM
[13] = target: 456 kinases (of these 395 non-mutant kinases) (Homo sapiens, UniProt P42336); conditions: PIK3CA; 10 μM
[14] = target: 456 kinases (of these 395 non-mutant kinases) (Homo sapiens, UniProt P42336, E545A); conditions: PIK3CA(E545A); 10 μM
[15] = target: 456 kinases (of these 395 non-mutant kinases) (Homo sapiens, UniProt P42336, H1047L); conditions: PIK3CA(H1047L); 10 μM
[16] = target: 456 kinases (of these 395 non-mutant kinases) (Homo sapiens, UniProt P42685); conditions: FRK; 10 μM
[17] = target: 456 kinases (of these 395 non-mutant kinases) (Homo sapiens, UniProt P54646); conditions: AMPK-alpha2; 10 μM
[18] = target: 456 kinases (of these 395 non-mutant kinases) (Homo sapiens, UniProt Q00537); conditions: PCTK2; 10 μM
[19] = target: 456 kinases (of these 395 non-mutant kinases) (Homo sapiens, UniProt Q04912); conditions: MST1R; 10 μM
[20] = target: 456 kinases (of these 395 non-mutant kinases) (Homo sapiens, UniProt Q13976); conditions: PRKG1; 10 μM
Sequence of 456 kinases (of these 395 non-mutant kinases) (Homo sapiens, UniProt Q13976) (Q13976 2-671 limits assumed, change not shown): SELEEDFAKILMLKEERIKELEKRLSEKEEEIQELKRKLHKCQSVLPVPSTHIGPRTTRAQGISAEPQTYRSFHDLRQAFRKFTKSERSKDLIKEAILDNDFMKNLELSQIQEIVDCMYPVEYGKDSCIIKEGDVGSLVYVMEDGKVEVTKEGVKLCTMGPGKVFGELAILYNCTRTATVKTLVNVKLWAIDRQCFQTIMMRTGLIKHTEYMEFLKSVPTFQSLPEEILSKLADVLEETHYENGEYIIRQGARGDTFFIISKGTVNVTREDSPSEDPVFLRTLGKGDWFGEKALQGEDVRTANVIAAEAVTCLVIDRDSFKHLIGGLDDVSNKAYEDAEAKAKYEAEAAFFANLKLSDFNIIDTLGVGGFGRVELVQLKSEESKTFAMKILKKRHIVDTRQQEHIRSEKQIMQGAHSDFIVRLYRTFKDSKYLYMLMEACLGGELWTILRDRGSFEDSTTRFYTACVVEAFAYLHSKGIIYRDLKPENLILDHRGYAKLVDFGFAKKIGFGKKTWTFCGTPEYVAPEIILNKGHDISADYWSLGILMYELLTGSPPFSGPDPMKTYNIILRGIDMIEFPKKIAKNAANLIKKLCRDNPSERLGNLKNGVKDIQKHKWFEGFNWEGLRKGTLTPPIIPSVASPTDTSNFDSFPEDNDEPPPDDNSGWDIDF

[21] = target: 456 kinases (of these 395 non-mutant kinases) (Homo sapiens, UniProt Q15139); conditions: PRKD1; 10 μM
[22] = target: 456 kinases (of these 395 non-mutant kinases) (Homo sapiens, UniProt Q15569); conditions: TESK1; 10 μM
[23] = target: 456 kinases (of these 395 non-mutant kinases) (Homo sapiens, UniProt Q56UN5); conditions: YSK4; 10 μM
[24] = target: 456 kinases (of these 395 non-mutant kinases) (Homo sapiens, UniProt Q86UE8); conditions: TLK2; 10 μM
[25] = target: 456 kinases (of these 395 non-mutant kinases) (Homo sapiens, UniProt Q8IVH8); conditions: MAP4K3; 10 μM
[26] = target: 456 kinases (of these 395 non-mutant kinases) (Homo sapiens, UniProt Q8N5S9); conditions: CAMKK1; 10 μM
[27] = target: 456 kinases (of these 395 non-mutant kinases) (Homo sapiens, UniProt Q8TDX7); conditions: NEK7; 10 μM
[28] = target: 456 kinases (of these 395 non-mutant kinases) (Homo sapiens, UniProt Q9H3Y6); conditions: SRMS; 10 μM
[29] = target: 456 kinases (of these 395 non-mutant kinases) (Homo sapiens, UniProt Q9HCP0); conditions: CSNK1G1; 10 μM
[30] = target: 456 kinases (of these 395 non-mutant kinases) (Homo sapiens, UniProt Q9NSY1); conditions: BIKE; 10 μM
[31] = target: 456 kinases (of these 395 non-mutant kinases) (Homo sapiens, UniProt Q9UBE8); conditions: NLK; 10 μM
[32] = target: 456 kinases (of these 395 non-mutant kinases) (Homo sapiens, UniProt Q9Y6E0); conditions: MST3; 10 μM

CCc1ccccc1NC(=O)c1c(C)nsc1Nc1cnc2cc(F)ccc2n1 [Example 20, N-(2-Ethylphenyl)-5-[(6-fluoroquinoxalin-2-yl)amino]-3-methyl-1,2-thiazole-4-carboxamide]
% Ctrl @ 10 μM [1]: 93 % Ctrl | % Ctrl @ 10 μM [2]: 73 % Ctrl | % Ctrl @ 10 μM [3]: 100 % Ctrl | % Ctrl @ 10 μM [4]: 77 % Ctrl | % Ctrl @ 10 μM [5]: 94 % Ctrl | % Ctrl @ 10 μM [6]: 100 % Ctrl | % Ctrl @ 10 μM [7]: 61 % Ctrl | % Ctrl @ 10 μM [8]: 100 % Ctrl | % Ctrl @ 10 μM [9]: 99 % Ctrl | % Ctrl @ 10 μM [10]: 100 % Ctrl | % Ctrl @ 10 μM [11]: 88 % Ctrl | % Ctrl @ 10 μM [12]: 90 % Ctrl | % Ctrl @ 10 μM [13]: 100 % Ctrl | % Ctrl @ 10 μM [14]: 95 % Ctrl | % Ctrl @ 10 μM [15]: 56 % Ctrl | % Ctrl @ 10 μM [16]: 66 % Ctrl | % Ctrl @ 10 μM [17]: 100 % Ctrl | % Ctrl @ 10 μM [18]: 100 % Ctrl | % Ctrl @ 10 μM [19]: 100 % Ctrl | % Ctrl @ 10 μM [20]: 90 % Ctrl | % Ctrl @ 10 μM [21]: 88 % Ctrl | % Ctrl @ 10 μM [22]: 78 % Ctrl | % Ctrl @ 10 μM [23]: 100 % Ctrl | % Ctrl @ 10 μM [24]: 94 % Ctrl | % Ctrl @ 10 μM [25]: 83 % Ctrl | % Ctrl @ 10 μM [26]: 80 % Ctrl | % Ctrl @ 10 μM [27]: 79 % Ctrl | % Ctrl @ 10 μM [28]: 100 % Ctrl | % Ctrl @ 10 μM [29]: 90 % Ctrl | % Ctrl @ 10 μM [30]: 62 % Ctrl | % Ctrl @ 10 μM [31]: 100 % Ctrl | % Ctrl @ 10 μM [32]: 75 % Ctrl
